Patent publication US20190029257A1, “APPLICATION FOR HERBICIDE-TOLERANT PROTEIN” (BEIJING DABEINONG TECHNOLOGY GROUP CO., LTD., priority 2016, published 2019)

Key:
Type in all cases: in vivo
[1] = tested on: transgenic soybean plants (ALT-1, ALT-2 and ALT-3); test: Halosulfuron-methyl tolerance of soybean plants; conditions: 34 g ai/ha; summary of Table 3
Description: Gm cytoplasmic ALT-1-01 soybean plants, Gm chloroplastic ALT-1-01 soybean plants, Gm cytoplasmic ALT-2-01 soybean plants, Gm chloroplastic ALT-2-01 soybean plants, Gm cytoplasmic ALT-3-01 soybean plants, Gm chloroplastic ALT-3-01 soybean plants and wild-type soybean plants were respectively taken and sprayed with halosulfuron-methyl (34 g ai/ha, 1-fold field concentration) and a blank solvent (water). The damage degree caused by the herbicide was measured for each plant according to the leaf curl degree and the growth point damage degree 3 days after spraying (3 DAT), 7 days after spraying (7 DAT), 14 days after spraying (14 DAT) and 21 days after spraying (21 DAT), respectively: considering conditions of leaves being flat as the untreated plants and growth points being intact as having a damage degree of 0%; considering conditions of veins being locally browned, new leaves being malformed and plant growth being slow as having a damage degree of 50%; and considering conditions of veins being purple to whole plant being dead and growth points being browned and dry as having a damage degree of 100%. […]

[2] = tested on: Gm chloroplastic ALT-3-01 soybean plants; test: Halosulfuron-methyl tolerance of soybean plants (damage degree); parameters: dose or concentration left out as unconfirmed; conditions: for Average damage % 3 DAT: 3 days after spraying; for Average damage % 7 DAT: 7 days after spraying; for Average damage % 14 DAT: 14 days after spraying; for Average damage % 21 DAT: 21 days after spraying
Description: (§1) The herbicide tolerance effects of Gm cytoplasmic ALT-1-01 soybean plants, Gm chloroplastic ALT-1-01 soybean plants, Gm cytoplasmic ALT-2-01 soybean plants, Gm chloroplastic ALT-2-01 soybean plants, Gm cytoplasmic ALT-3-01 soybean plants, Gm chloroplastic ALT-3-01 soybean plants and wild-type soybean plants on halosulfuron-methyl were detected (at seedling stage), respectively.
Gm cytoplasmic ALT-1-01 soybean plants, Gm chloroplastic ALT-1-01 soybean plants, Gm cytoplasmic ALT-2-01 soybean plants, Gm chloroplastic ALT-2-01 soybean plants, Gm cytoplasmic ALT-3-01 soybean plants, Gm chloroplastic ALT-3-01 soybean plants and wild-type soybean plants were respectively taken and sprayed with halosulfuron-methyl ([…]) and a blank solvent (water). The damage degree caused by the herbicide was measured for each plant according to the leaf curl degree and the growth point damage degree 3 days after spraying (3 DAT), 7 days after spraying (7 DAT), 14 days after spraying (14 DAT) and 21 days after spraying (21 DAT), respectively: considering conditions of leaves being flat as the untreated plants and growth points being intact as having a damage degree of 0%; considering conditions of veins being locally browned, new leaves being malformed and plant growth being slow as having a damage degree of 50%; and considering conditions of veins being purple to whole plant being dead and growth points being browned and dry as having a damage degree of 100%. There were 2 strains in Gm cytoplasmic ALT-1-01 soybean plants in total (S1 and S2), 2 strains in Gm chloroplastic ALT-1-01 soybean plants in total (S3 and S4), 2 strains in Gm cytoplasmic ALT-2-01 soybean plants in total (S5 and S6), 2 strains in Gm chloroplastic ALT-2-01 soybean plants in total (S7 and S8), 2 strains in Gm cytoplasmic ALT-3-01 soybean plants in total (S9 and S10), 2 strains in Gm chloroplastic ALT-3-01 soybean plants in total (S11 and S12), and 1 strain in wild-type soybean plants (CK1) in total; and 10-15 plants were selected from each strain and tested.

[3] = tested on: wild-type maize plants (CK2); test: Halosulfuron-methyl tolerance of maize plants (damage degree); parameters: Average damage % 3 DAT / Average damage % 7 DAT / Average damage % 14 DAT / Average damage % 21 DAT: dose or concentration left out as unconfirmed
Description: as §1, with “Zm” for “Gm”, “ALT-1-02 maize” for “ALT-1-01 soybean”, “ALT-2-02 maize” for “ALT-2-01 soybean”, “ALT-3-02 maize” for “ALT-3-01 soybean”, “maize” for “soybean”, “V3-V4” for “seedling”
[…] The damage degree caused by the herbicide was measured for each plant according to the plant growth status 3 days after spraying (3 DAT), 7 days after spraying (7 DAT), 14 days after spraying (14 DAT) and 21 days after spraying (21 DAT), respectively: considering a growth status equivalent to that of the untreated plants as having a damage degree of 0%; considering conditions of leaves being partially chlorotic and yellow but substantially not affecting the plant normal growth as having a damage degree of 50%; and considering the whole plant being purple and dying as having a damage degree of 100%. There were 2 strains in Zm cytoplasmic ALT-1-02 maize plants in total (S13 and S14), 2 strains in Zm chloroplastic ALT-1-02 maize plants in total (S15 and S16), 2 strains in Zm cytoplasmic ALT-2-02 maize plants in total (S17 and S18), 2 strains in Zm chloroplastic ALT-2-02 maize plants in total (S19 and S20), 2 strains in Zm cytoplasmic ALT-3-02 maize plants in total (S21 and S22), 2 strains in Zm chloroplastic ALT-3-02 maize plants in total (S23 and S24), and 1 strain in wild- type maize plants (CK2) in total; and 10-15 plants were selected from each strain and tested.

## COC(=O)c1c(Cl)nn(C)c1S(=O)(=O)NC(=O)Nc1nc(OC)cc(OC)n1 [halosulfuron-methyl, 3-chlorine-5-(4,6-dimethoxypyrimidine-2-aminocarbonylaminosulphonyl)-1-methylpyrazole-4-carboxylic acid methyl ester]
[1]
  tolerance of the plants to the herbicide: high level of halosulfuron-methyl herbicide tolerance
[2]; strain S11
  Average damage % 3 DAT: 10%
  Average damage % 7 DAT: 4%
  Average damage % 14 DAT: 0%
  Average damage % 21 DAT: 0%
[2]; strain S12
  Average damage % 3 DAT: 11%
  Average damage % 7 DAT: 5%
  Average damage % 14 DAT: 0%
  Average damage % 21 DAT: 0%
[3]; 36 g ai/ha, summary of Table 4
  damage to the plants: some slight damage
[3]; strain CK2, 3 days after spraying
  Average damage % 3 DAT: 10%
[3]; strain CK2, 7 days after spraying
  Average damage % 7 DAT: 20%
[3]; strain CK2, 14 days after spraying
  Average damage % 14 DAT: 19%
[3]; strain CK2, 21 days after spraying
  Average damage % 21 DAT: 18%
